According to patent publication US9453062B2, “Glucose dependent insulinotropic polypeptide analogs, pharmaceutical compositions and use thereof” (Beijing Hanmi Pharmaceutical Co., Ltd., priority 2011, dated 2016):
*1 amine or outer side, *2 acyl side, *3 side chain or, on linkers, in order; H or OH if unused. Where a SMILES comes first, the peptide text is derived from it. Bridges are numbered along the chain shown (N, C = ends). Where no end group is shown, it is not given here. Side-chain parts run from the residue outwards. [ ]: non-standard residue; d: D form. The star is where a group is joined. Biotin = O=C1N[C@H]2[C@H](CS[C@H]2CCCCC(=O)*)N1; γGlu = O=C(O)[C@H](CCC(=O)[*:2])N[*:1]; Palmitoyl = CCCCCCCCCCCCCCCC(=O)*; Aib = CC(C)(N)C(=O)O

Legend:
hGLP-1R = target: T1, hGLP-1R (Homo sapiens, UniProt P43220); assay: hGLP-1R-mediated cAMP induction assay in CHO cell line; format: cell-based; details: Table 3; for GLP-1 Receptor Relative Potency: against native GLP-1; for EC50: CHO hGLP1R cells;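 for all read-outs here: CHO cells expressing human GLP-1R, treated 30 min at 37 °C, intracellular cAMP measured by competitive fluorescent immunoassay and converted via a cAMP standard curve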
T1 construct: expressed in transfected cells; host or cells: CHO
Source text: (§1) The cAMP in the sample or standard competes with horseradish peroxidase (HRP)-labeled cAMP conjugate for binding sites on the anti-cAMP antibodies. In the absence of cAMP, most of the HRP-cAMP conjugate is bound to the antibody. Increasing concentrations of cAMP competitively decrease the amount of bound conjugate, thus decreasing measured HRP activity.
(§2) Assay kit: CatchPoint™ Cyclic-AMP Fluorescent Assay Kit (Molecular Devices, Product # R8088)
Cell lines: CHO hGLP1R, CHO hGIPR
(§3) Cell seeding: CHO hGLP1R or CHO hGIPR cells: 10,000 cells/well/100 uL at 37° C. 5% CO2 overnight.
(§4) Gently aspirate off media and wash the cells with KRBG Buffer, 100 uL/well.
(§5) Incubate the plate for 10 min at room temperature. Then add the KRBG buffer with 3× final concentration of the tested samples (5-foled series diluted from 5,000 nM), 50 uL/well. Incubate the plate at 37° C. 5% CO2 for 30 min.
(§6) Add 50 uL of Lysis buffer to each well and put the plate on a shaker for 10 min.
(§7) Place 40 uL of samples and analyze in appropriate wells. And test the cAMP concentration in each sample by following the manufacture's instruction.
(§8) Detect the fluorescence signal at Ex: 490 nm and Em: 530 nm. Transfer the FI signal to cAMP concentration by the cAMP standard curve. The Dose-response curve and EC50 were obtained by logistic fitting of Origin 8.

hGIPR = target: T2, hGIPR (Homo sapiens, UniProt P48546); assay: hGIPR-mediated cAMP induction assay in CHO cell line; format: cell-based; details: Table 3; for GIP Receptor Relative Potency: against native GIP; for EC50: CHO hGIPR cells
T2 construct: expressed in transfected cells; host or cells: CHO
T2 sequence (P48546 22-466): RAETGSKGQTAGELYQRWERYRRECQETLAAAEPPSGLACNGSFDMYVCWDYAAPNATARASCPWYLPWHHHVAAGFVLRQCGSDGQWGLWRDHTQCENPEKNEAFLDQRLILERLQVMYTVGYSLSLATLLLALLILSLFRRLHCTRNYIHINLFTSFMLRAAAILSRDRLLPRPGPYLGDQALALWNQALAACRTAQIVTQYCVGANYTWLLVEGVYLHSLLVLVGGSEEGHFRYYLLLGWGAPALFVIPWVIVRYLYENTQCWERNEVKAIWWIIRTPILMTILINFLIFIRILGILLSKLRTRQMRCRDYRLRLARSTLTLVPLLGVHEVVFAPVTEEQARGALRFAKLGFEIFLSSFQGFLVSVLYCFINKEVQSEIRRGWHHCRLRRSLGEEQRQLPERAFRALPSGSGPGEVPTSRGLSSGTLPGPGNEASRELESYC
Source text: as §1, §2
Cell lines: CHO hGLP1R, CHO hGIPR
as §3, §4, §5, §6, §7, §8

T1 sequence (P43220 24-463): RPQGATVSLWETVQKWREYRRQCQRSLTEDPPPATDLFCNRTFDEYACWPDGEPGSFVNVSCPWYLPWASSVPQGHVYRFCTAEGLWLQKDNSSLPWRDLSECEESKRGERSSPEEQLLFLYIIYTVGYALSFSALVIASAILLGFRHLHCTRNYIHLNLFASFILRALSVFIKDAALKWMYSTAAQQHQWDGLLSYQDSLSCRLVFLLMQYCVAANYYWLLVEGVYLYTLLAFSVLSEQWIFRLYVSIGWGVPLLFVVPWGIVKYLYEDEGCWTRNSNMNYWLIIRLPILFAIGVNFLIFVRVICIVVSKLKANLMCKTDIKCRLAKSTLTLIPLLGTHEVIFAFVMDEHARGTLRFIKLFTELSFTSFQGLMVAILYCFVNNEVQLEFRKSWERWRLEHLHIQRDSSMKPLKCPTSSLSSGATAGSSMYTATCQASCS

Molecule | GLP-1 Receptor Relative Potency (hGLP-1R) | GIP Receptor Relative Potency (hGIPR) | EC50 (hGLP-1R) | EC50 (hGIPR)
CCCCCCCCCCCCCCCC(=O)NCCCC[C@H](NC(=O)[C@@H](NC(=O)[C@H](C)NC(=O)[C@H](CCC(=O)O)NC(=O)[C@H](CCCCN)NC(=O)[C@H](CCC(=O)O)NC(=O)[C@H](CCSC)NC(=O)[C@H](Cc1ccc(O)cc1)NC(=O)[C@@H](NC(=O)[C@H](CO)NC(=O)[C@H](Cc1ccc(O)cc1)NC(=O)[C@H](CC(=O)O)NC(=O)[C@H](CO)NC(=O)[C@@H](NC(=O)[C@H](Cc1ccccc1)NC(=O)[C@@H](NC(=O)CNC(=O)[C@H](CCC(=O)O)NC(=O)C(C)(C)NC(=O)[C@@H](N)Cc1ccc(O)cc1)[C@@H](C)O)[C@@H](C)O)[C@@H](C)CC)C(C)C)C(=O)N[C@@H](CCC(=O)O)C(=O)N[C@@H](Cc1ccccc1)C(=O)N[C@H](C(=O)N[C@@H](C)C(=O)N[C@@H](Cc1c[nH]c2ccccc12)C(=O)N[C@@H](CC(C)C)C(=O)N[C@H](C(=O)N[C@@H](CCCCN)C(=O)NCC(N)=O)C(C)C)[C@@H](C)CC [Compound 067] (H-Y[Aib]EGTFTSDYSIYMEKEAVK(Palmitoyl)EFIAWLVKG-NH2) | 13.9 | 4.6 |  | 
Y[Aib]EGTFTSDYSIYMEKEAVREFIAWLVKGGPSSGAPPPSKKKKKK(Palmitoyl)-NH2 [Compound 078] | 754 | 352.6 | 0.145 nM | 0.019 nM
H-Y[Aib]EGTFTSDYSIYMEKEAVREFIAWLVKGGPSSGAPPPSKKKKKK(Biotin)-NH2 [Compound 080] | 98.5 | 67 | 1.11 nM | 0.1 nM
CCCCCCCCCCCCCCCC(=O)N[C@@H](CCC(=O)N[C@@H](CCC(=O)NCCCC[C@H](NC(=O)[C@H](CO)NC(=O)[C@@H]1CCCN1C(=O)[C@@H]1CCCN1C(=O)[C@@H]1CCCN1C(=O)[C@H](C)NC(=O)CNC(=O)[C@H](CO)NC(=O)[C@H](CO)NC(=O)[C@@H]1CCCN1C(=O)CNC(=O)CNC(=O)[C@H](CCCCN)NC(=O)[C@@H](NC(=O)[C@H](CC(C)C)NC(=O)[C@H](Cc1c[nH]c2ccccc12)NC(=O)[C@H](C)NC(=O)[C@@H](NC(=O)[C@H](Cc1ccccc1)NC(=O)[C@H](CCC(=O)O)NC(=O)[C@H](CCCNC(=N)N)NC(=O)[C@@H](NC(=O)[C@H](C)NC(=O)[C@H](CCC(=O)O)NC(=O)[C@H](CCCCN)NC(=O)[C@H](CCC(=O)O)NC(=O)[C@H](CCSC)NC(=O)[C@H](Cc1ccc(O)cc1)NC(=O)[C@@H](NC(=O)[C@H](CO)NC(=O)[C@H](Cc1ccc(O)cc1)NC(=O)[C@H](CC(=O)O)NC(=O)[C@H](CO)NC(=O)[C@@H](NC(=O)[C@H](Cc1ccccc1)NC(=O)[C@@H](NC(=O)CNC(=O)[C@H](CCC(=O)O)NC(=O)C(C)(C)NC(=O)[C@@H](N)Cc1ccc(O)cc1)[C@@H](C)O)[C@@H](C)O)[C@@H](C)CC)C(C)C)[C@@H](C)CC)C(C)C)C(N)=O)C(=O)O)C(=O)O [Compound 091] | 921.5 | 287.8 | 0.116 nM | 0.041 nM
Y[Aib]EGTFTSDYSIYMEKEAVREFIAWLVKGGPSSGAPPPSKKKKKK-NH2 [Compound 071] | 25.1 | 22.1 | 3.8 nM | 0.77 nM
CC[C@H](C)[C@H](NC(=O)[C@H](Cc1ccccc1)NC(=O)[C@H](CCC(=O)O)NC(=O)[C@H](CCCNC(=N)N)NC(=O)[C@@H](NC(=O)[C@H](C)NC(=O)[C@H](CCC(=O)O)NC(=O)[C@H](CCCCN)NC(=O)[C@H](CCC(=O)O)NC(=O)[C@H](CCSC)NC(=O)[C@H](Cc1ccc(O)cc1)NC(=O)[C@@H](NC(=O)[C@H](CO)NC(=O)[C@H](Cc1ccc(O)cc1)NC(=O)[C@H](CC(=O)O)NC(=O)[C@H](CO)NC(=O)[C@@H](NC(=O)[C@H](Cc1ccccc1)NC(=O)[C@@H](NC(=O)CNC(=O)[C@H](CCC(=O)O)NC(=O)C(C)(C)NC(=O)[C@@H](N)Cc1ccc(O)cc1)[C@@H](C)O)[C@@H](C)O)[C@@H](C)CC)C(C)C)C(=O)N[C@@H](C)C(=O)N[C@@H](Cc1c[nH]c2ccccc12)C(=O)N[C@@H](CC(C)C)C(=O)N[C@H](C(=O)N[C@@H](CCCCN)C(=O)NCC(=O)NCC(=O)N1CCC[C@H]1C(=O)N[C@@H](CO)C(=O)N[C@@H](CO)C(=O)NCC(=O)N[C@@H](C)C(=O)N1CCC[C@H]1C(=O)N1CCC[C@H]1C(=O)N1CCC[C@H]1C(=O)N[C@@H](CO)C(=O)N[C@@H](CCCCNC(=O)CCCC[C@@H]1SC[C@@H]2NC(=O)N[C@@H]21)C(N)=O)C(C)C [Compound 074] | 90.7 | 39.5 | 1.05 nM | 0.43 nM
CCCCCCCCCCCCCCCC(=O)NCCCC[C@H](NC(=O)CNC(=O)[C@H](CCCCN)NC(=O)[C@@H](NC(=O)[C@H](CC(C)C)NC(=O)[C@H](Cc1c[nH]c2ccccc12)NC(=O)[C@H](C)NC(=O)[C@@H](NC(=O)[C@H](Cc1ccccc1)NC(=O)[C@H](CCC(=O)O)NC(=O)[C@H](CCCNC(=N)N)NC(=O)[C@@H](NC(=O)[C@H](C)NC(=O)[C@H](CCC(=O)O)NC(=O)[C@@H]1CCCCNC(=O)CC[C@H](NC(=O)[C@H](CO)NC(=O)[C@H](Cc2ccc(O)cc2)NC(=O)[C@H](CC(=O)O)NC(=O)[C@H](CO)NC(=O)[C@@H](NC(=O)[C@H](Cc2ccccc2)NC(=O)[C@@H](NC(=O)CNC(=O)[C@H](CCC(=O)O)NC(=O)C(C)(C)NC(=O)[C@@H](N)Cc2ccc(O)cc2)[C@@H](C)O)[C@@H](C)O)C(=O)N[C@@H](Cc2ccc(O)cc2)C(=O)N[C@@H](CCSC)C(=O)N[C@@H](CCC(=O)O)C(=O)N1)C(C)C)[C@@H](C)CC)C(C)C)C(N)=O [Compound 084] (H-Y[Aib]EGTFTSDYSEYMEKEAVREFIAWLVKGK(Palmitoyl)-NH2; lactam 12-16) | 22.2 | 8.8 |  | 
CC[C@H](C)[C@H](NC(=O)[C@H](CO)NC(=O)[C@H](Cc1ccc(O)cc1)NC(=O)[C@H](CC(=O)O)NC(=O)[C@H](CO)NC(=O)[C@@H](NC(=O)[C@H](Cc1ccccc1)NC(=O)[C@@H](NC(=O)CNC(=O)[C@H](CCC(=O)O)NC(=O)C(C)(C)NC(=O)[C@@H](N)Cc1ccc(O)cc1)[C@@H](C)O)[C@@H](C)O)C(=O)N[C@@H](Cc1ccc(O)cc1)C(=O)N[C@@H](CCSC)C(=O)N[C@@H](CCC(=O)O)C(=O)N[C@@H](CCCCN)C(=O)N[C@@H](CCC(=O)O)C(=O)N[C@@H](C)C(=O)N[C@H](C(=O)N[C@@H](CCCNC(=N)N)C(=O)N[C@@H](CCC(=O)O)C(=O)N[C@@H](Cc1ccccc1)C(=O)N[C@H](C(=O)N[C@@H](CS)C(=O)N[C@@H](Cc1c[nH]c2ccccc12)C(=O)N[C@@H](CC(C)C)C(=O)N[C@H](C(=O)N[C@@H](CCCCN)C(=O)NCC(=O)NCC(=O)N1CCC[C@H]1C(=O)N[C@@H](CO)C(=O)N[C@@H](CO)C(=O)NCC(=O)N[C@@H](C)C(=O)N1CCC[C@H]1C(=O)N1CCC[C@H]1C(=O)N1CCC[C@H]1C(=O)N[C@@H](CO)C(=O)N[C@@H](CCCCN)C(N)=O)C(C)C)[C@@H](C)CC)C(C)C [Compound 105] (H-Y[Aib]EGTFTSDYSIYMEKEAVREFICWLVKGGPSSGAPPPSK-NH2; N-terminus assumed) |  |  | 3.94 nM | 0.4 nM
CCCCCCCCCCCCCCCC(=O)N[C@@H](CCC(=O)N[C@@H](CCC(=O)NCCCC[C@H](NC(=O)[C@@H](NC(=O)[C@H](C)NC(=O)[C@H](CCC(=O)O)NC(=O)[C@H](CCCCN)NC(=O)[C@H](CCC(=O)O)NC(=O)[C@H](CCSC)NC(=O)[C@H](Cc1ccc(O)cc1)NC(=O)[C@@H](NC(=O)[C@H](CO)NC(=O)[C@H](Cc1ccc(O)cc1)NC(=O)[C@H](CC(=O)O)NC(=O)[C@H](CO)NC(=O)[C@@H](NC(=O)[C@H](Cc1ccccc1)NC(=O)[C@@H](NC(=O)CNC(=O)[C@H](CCC(=O)O)NC(=O)C(C)(C)NC(=O)[C@@H](N)Cc1ccc(O)cc1)[C@@H](C)O)[C@@H](C)O)[C@@H](C)CC)C(C)C)C(=O)N[C@@H](CCC(=O)O)C(=O)N[C@@H](Cc1ccccc1)C(=O)N[C@H](C(=O)N[C@@H](C)C(=O)N[C@@H](Cc1c[nH]c2ccccc12)C(=O)N[C@@H](CC(C)C)C(=O)N[C@H](C(=O)N[C@@H](CCCCN)C(=O)NCC(=O)NCC(=O)N1CCC[C@H]1C(=O)N[C@@H](CO)C(=O)N[C@@H](CO)C(=O)NCC(=O)N[C@@H](C)C(=O)N1CCC[C@H]1C(=O)N1CCC[C@H]1C(=O)N1CCC[C@H]1C(=O)N[C@@H](CO)C(N)=O)C(C)C)[C@@H](C)CC)C(=O)O)C(=O)O [Compound 093] (H-Y[Aib]EGTFTSDYSIYMEKEAVK([γGlu-γGlu-Palmitoyl])EFIAWLVKGGPSSGAPPPS-NH2) | 232.5 | 133.3 | 0.43 nM | 0.03 nM
